Measurements from article PMC7280082 (Acta Pharmaceutica Sinica. B, 2019).

What was measured:
[1] = tested on: HIV-1 K103N mutant strain; test: microbe, parasite or virus in culture; assay type: cell-based; conditions: for SI K103N: CC50/EC50; for EC50: Human immunodeficiency virus 1, MT4, read-out: EC50 K103N; for RF K103N: ratio of EC50 (resistant viral strain)/EC50 (wild-type viral strain)
[2] = tested on: HIV-1 E138K mutant strain; test: microbe, parasite or virus in culture; assay type: cell-based; conditions: for SI E138K: CC50/EC50; for EC50: Human immunodeficiency virus 1, MT4, read-out: EC50 E138K; for RF E138K: ratio of EC50 (resistant viral strain)/EC50 (wild-type viral strain)
[3] = tested on: HIV-1 L100I mutant strain; test: microbe, parasite or virus in culture; assay type: cell-based; conditions: for SI L100I: CC50/EC50; for EC50: Human immunodeficiency virus 1, MT4, read-out: EC50 L100I; for RF L100I: ratio of EC50 (resistant viral strain)/EC50 (wild-type viral strain)
[4] = tested on: WT HIV-1 (IIIB); test: microbe, parasite or virus in culture; assay type: cell-based; conditions: for EC50: Human immunodeficiency virus 1, IIIB, MT4, read-out: EC50 IIIB; for SI IIIB: ratio of CC50/EC50
[5] = tested on: HIV-1 RES056 (K103N + Y181C) double-mutant strain; test: microbe, parasite or virus in culture; assay type: cell-based; conditions: for SI RES056: CC50/EC50; for EC50: Human immunodeficiency virus 1, MT4, read-out: EC50 RES056; for RF RES056: ratio of EC50 (resistant viral strain)/EC50 (wild-type viral strain)
[6] = tested on: HIV-1 F227L + V106A double-mutant strain; test: microbe, parasite or virus in culture; assay type: cell-based; conditions: for SI F227L + V106A: CC50/EC50; for EC50: Human immunodeficiency virus 1, MT4, read-out: EC50 F227L + V106A; for RF F227L + V106A: ratio of EC50 (resistant viral strain)/EC50 (wild-type viral strain)
[7] = molecular target: WT HIV-1 RT (Human immunodeficiency virus type 1 group M subtype B, UniProt P03366); test: Recombinant HIV-1 RT inhibitory assay; assay type: biochemical
[8] = tested on: HIV-1 Y181C mutant strain; test: microbe, parasite or virus in culture; assay type: cell-based; conditions: for SI Y181C: CC50/EC50; for EC50: Human immunodeficiency virus 1, MT4, read-out: EC50 Y181C; for RF Y181C: ratio of EC50 (resistant viral strain)/EC50 (wild-type viral strain)
[9] = tested on: HIV-1 Y188L mutant strain; test: microbe, parasite or virus in culture; assay type: cell-based; conditions: for SI Y188L: CC50/EC50; for EC50: Human immunodeficiency virus 1, MT4, read-out: EC50 Y188L; for RF Y188L: ratio of EC50 (resistant viral strain)/EC50 (wild-type viral strain)
[10] = Cytotoxicity in mock-infected MT-4 cell cultures, MTT method; conditions: human, mock-infected MT-4 cells
[11] = tested on: HIV-2 strain (ROD); test: Anti-HIV-2; assay type: cell-based; conditions: for EC50: Human immunodeficiency virus 2, MT4, read-out: EC50 ROD; for SI ROD: ratio of CC50/EC50

| SMILES | SI K103N [1] | EC50 [1] | RF K103N [1] | SI E138K [2] | EC50 [2] | RF E138K [2] | SI L100I [3] | EC50 [3] | RF L100I [3] | EC50 [4] | SI IIIB [4] | SI RES056 [5] | EC50 [5] | RF RES056 [5] | SI F227L + V106A [6] | EC50 [6] | RF F227L + V106A [6] | IC50 [7] | SI Y181C [8] | EC50 [8] | further results |
| --- | --- | --- | --- | --- | --- | --- | --- | --- | --- | --- | --- | --- | --- | --- | --- | --- | --- | --- | --- | --- | --- |
| Cc1cc(-c2ccccc2)cc(C)c1Oc1nc(NC2CCN(Cc3ccc(C(N)=O)cc3)CC2)nc2ccsc12 [Compound 20, 4-((4-((4-((3,5-Dimethyl-[1,1′-biphenyl]-4-yl)oxy)thieno[3,2-d]pyrimidin-2-yl)amino)piperidin-1-yl)methyl)benzamide] | 171 | 102 ± 2.5 nM | 2.1 | 120 | 146 ± 12.5 nM | 3.1 | 42 | 416 ± 87.9 nM | 8.7 | 47.7 ± 11.8 nM | 367 | 10 | 1733 ± 5.51 nM | 36.3 | 44 | 395 ± 5.14 nM | 8.3 | 161 ± 14 nM | 89 | 196 ± 54.6 nM | RF Y181C [8]: 4.1; SI Y188L [9]: 85; EC50 [9]: 205 ± 13.6 nM; RF Y188L [9]: 4.3; CC50 at 5 days [10]: 17500 ± 6180 nM; EC50 [11]: 3840 ± 1760 nM; SI ROD [11]: 5 |
| COc1ccc(-c2cc(C)c(Oc3nc(NC4CCN(Cc5ccc(S(N)(=O)=O)cc5)CC4)nc4ccsc34)c(C)c2)cc1 [Compound 21, 4-((4-((4-((4′-Methoxy-3,5-dimethyl-[1,1′-biphenyl]-4-yl)oxy)thieno[3,2-d]pyrimidin-2-yl)amino)piperidin-1-yl)methyl)benzenesulfonamide] | 289 | 57.6 ± 0.67 nM | 0.9 | 145 | 114 ± 9.2 nM | 1.9 | 98 | 169 ± 2.91 nM | 2.8 | 61.1 ± 10.3 nM | 272 | 11 | 1560 ± 1280 nM | 25.6 | 136 | 122 ± 59.9 nM | 2.0 | 268 ± 52 nM | 105 | 157 ± 5.61 nM | RF Y181C [8]: 2.6; SI Y188L [9]: 114; EC50 [9]: 146 ± 44.7 nM; RF Y188L [9]: 2.4; CC50 at 5 days [10]: 16600 ± 4650 nM; EC50 [11]: > 16600 nM; SI ROD [11]: <1 |
| COc1ccc(-c2cc(C)c(Oc3nc(NC4CCN(Cc5ccc(C(N)=O)cc5)CC4)nc4ccsc34)c(C)c2)cc1 [Compound 22, 4-((4-((4-((4′-Methoxy-3,5-dimethyl-[1,1′-biphenyl]-4-yl)oxy)thieno[3,2-d]pyrimidin-2-yl)amino)piperidin-1-yl)methyl)benzamide] | 230 | 58.4 ± 7.14 nM | 1.1 | 90 | 149 ± 42 nM | 2.8 | 50 | 268 ± 103 nM | 5.1 | 52.6 ± 11.4 nM | 256 | 12 | 1120 ± 353 nM | 21.4 | 45 | 297 ± 39.8 nM | 5.7 | 233 ± 28 nM | 85 | 158 ± 27.3 nM | RF Y181C [8]: 3.0; SI Y188L [9]: 122; EC50 [9]: 110 ± 3.57 nM; RF Y188L [9]: 2.1; CC50 at 5 days [10]: 13400 ± 5940 nM; EC50 [11]: 5040 ± 685 nM; SI ROD [11]: 3 |
| Cc1cc(-c2ccc(F)cc2)cc(C)c1Oc1nc(NC2CCN(Cc3ccc(S(N)(=O)=O)cc3)CC2)nc2ccsc12 [Compound 23, 4-((4-((4-((4′-Fluoro-3,5-dimethyl-[1,1′-biphenyl]-4-yl)oxy)thieno[3,2-d]pyrimidin-2-yl)amino)piperidin-1-yl)methyl)benzenesulfonamide] | 1441 | 11.7 ± 1.03 nM | 1.0 | 547 | 30.9 ± 5.26 nM | 2.7 | 372 | 45.4 ± 5.26 nM | 4.0 | 11.3 ± 2.07 nM | 1492 | 43 | 388 ± 76.2 nM | 34.3 | 363 | 46.6 ± 15.5 nM | 4.1 | 211 ± 15 nM | 377 | 44.8 ± 5.26 nM | RF Y181C [8]: 4.0; SI Y188L [9]: 326; EC50 [9]: 51.8 ± 8.47 nM; RF Y188L [9]: 4.6; CC50 at 5 days [10]: 16900 ± 4770 nM; EC50 [11]: 3280 ± 1260 nM; SI ROD [11]: 5 |
| Cc1cc(-c2ccc(F)cc2)cc(C)c1Oc1nc(NC2CCN(Cc3ccc(C(N)=O)cc3)CC2)nc2ccsc12 [Compound 24, 4-((4-((4-((4′-Fluoro-3,5-dimethyl-[1,1′-biphenyl]-4-yl)oxy)thieno[3,2-d]pyrimidin-2-yl)amino)piperidin-1-yl)methyl)benzamide] | 578 | 11.7 ± 1.09 nM | 0.9 | 195 | 34.8 ± 10.6 nM | 2.7 | 111 | 61.1 ± 9.35 nM | 4.8 | 12.8 ± 2.73 nM | 532 | 12 | 575 ± 120 nM | 44.9 | 120 | 56.6 ± 13.7 nM | 4.4 | 171 ± 10 nM | 189 | 36.1 ± 1.21 nM | RF Y181C [8]: 2.8; SI Y188L [9]: 132; EC50 [9]: 51.4 ± 9.6 nM; RF Y188L [9]: 4.0; CC50 at 5 days [10]: 6800 ± 3130 nM; EC50 [11]: ≥ 5660 nM; SI ROD [11]: <1 |
| Cc1cc(-c2ccc(C#N)cc2)cc(C)c1Oc1nc(NC2CCN(Cc3ccc(S(N)(=O)=O)cc3)CC2)nc2ccsc12 [Compound 25, 4-((4-((4-((4′-Cyano-3,5-dimethyl-[1,1′-biphenyl]-4-yl)oxy)thieno[3,2-d]pyrimidin-2-yl)amino)piperidin-1-yl)methyl)benzenesulfonamide] | 403 | 13.2 ± 0.33 nM | 0.8 | 120 | 44.4 ± 3.62 nM | 2.6 | 194 | 27.4 ± 4.41 nM | 1.6 | 17 ± 5.78 nM | 312 | 51 | 103 ± 3.39 nM | 6.1 | 89 | 59.9 ± 10.2 nM | 3.5 | 288 ± 26 nM | 173 | 30.8 ± 0.11 nM | RF Y181C [8]: 1.8; SI Y188L [9]: 99; EC50 [9]: 53.6 ± 3.5 nM; RF Y188L [9]: 3.2; CC50 at 5 days [10]: 5310 ± 2560 nM; EC50 [11]: 5560 ± 42.3 nM; SI ROD [11]: 1 |
